Results as given in US20260007639A1, “COMPOUNDS FOR THE TREATMENT OF NEUROMUSCULAR DISORDERS” (NMD PHARMA A/S, priority 2017, published 2026).

These molecules were tested against T1, human CIC-1 channels (Homo sapiens, UniProt P35523) (assay: Automated patch-clamp on human CIC-1 expressed in CHO cells: shift of half activation voltage ΔV1/2). Conditions: compound in intracellular solution vs control cell patches; CHO cells expressing human CIC-1.
T1 construct: host or cells: CHO (Chinese hamster ovary) cells constitutively expressing human ClC-1
Type: cell-based
Method: FIGS. 13A-13B: FIG. 13A illustrates the voltage protocol used to evoke currents in whole cell patches of CHO cells expressing human CIC-1 channels.
Experiments were performed using an automated patch clamp system that allowed high throughput testing of whole cell patches together with both intracellular and extracellular addition of compound.
Automated whole cell patch clamp experiments were performed with the Qpatch 16 system (Sophion Bioscience, Ballerup, Denmark) at room temperature. Data acquisition and analysis were performed in the Qassay software (ver. 5.6, Odense).
To evoke CIC-1 currents in whole cell patches, the membrane potential was initially stepped from a holding potential of −30 mV to +60 mV for 100 ms and then to various test voltages (sweeps) ranging from +120 mV to −140 mV in steps of 20 mV for 300 ms. To obtain tail currents, the membrane potential was stepped to −100 mV after each test voltage for 300 ms and then relaxed to −30 mV for 2 sec between sweeps (FIG. 3).
I/V relationships for whole cell instant and steady state current amplitudes were obtained by plotting average current densities at the beginning and at the end of the 300 ms step against the membrane potential (FIG. 4).
In order to determine the relative overall open probability (Po), the instantaneous tail currents were normalized to the maximal tail current obtained following the most positive voltage step and plotted against the test voltage. Plots of normalized tail currents from each whole cell patch were then fitted to a Boltzmann function allowing determination of half activation voltages (V1/2, FIG. 5).
For automated patch clamp experiments extracellular solutions contained: 2 mM CaCl2), 1 mM MgCl2, 10 mM HEPES, 4 mM KCl, 145 mM NaCl, 10 mM Glucose, pH adjusted to 7.4 with NaOH (2 M). Osmolality adjusted to ˜320 using sucrose.
Intracellular solutions contained: 80 mM CsF, 60 mM CsCl, 5/1 mM KOH/EGTA, 10 mM HEPES, 10 mM NaCl, pH adjusted to 7.2 with NaOH (2 M). Osmolality adjusted to ˜320 mOsm using sucrose.
Cells used in patch clamp experiments were Chinese hamster ovary cells (CHO) constitutively expressing human CIC-1 channels. The amino acid sequence encoded by the cDNA used to create this cell line was identical to the translated sequence for GenBank accession number NM_000083.2. Cells were produced by Charles River (Catalogue CT6175, Cleveland OH, USA) in a cryopreserved format. Experiments were performed on the cells directly after thawing (3×10^6 cells used in each experiment).
To evaluate the compound effect on CIC-1, when applied directly to the intracellular side of the cell membrane, the half activation voltage, V1/2, was determined from whole cell patches with compound added to the intracellular solution and then compared to V1/2 determined from control cell patches with only vehicle added to the intracellular solution. Additionally, the effect of extracellular added compound was evaluated by determine V1/2 and steady state current amplitudes before and after exchanging the extracellular solution to contain compound.
The difference in half activation voltage of CIC-1 channels, ΔV1/2, was determined as the difference between the cell patches treated intracellularly with compound and control cells patches and is reported in Table 4 below. A positive shift in ΔV 1/2 is reflecting CIC-1 channel inhibition by the tested compound. P-values of <0.05 is considered significant.

T1 sequence (P35523 whole entry): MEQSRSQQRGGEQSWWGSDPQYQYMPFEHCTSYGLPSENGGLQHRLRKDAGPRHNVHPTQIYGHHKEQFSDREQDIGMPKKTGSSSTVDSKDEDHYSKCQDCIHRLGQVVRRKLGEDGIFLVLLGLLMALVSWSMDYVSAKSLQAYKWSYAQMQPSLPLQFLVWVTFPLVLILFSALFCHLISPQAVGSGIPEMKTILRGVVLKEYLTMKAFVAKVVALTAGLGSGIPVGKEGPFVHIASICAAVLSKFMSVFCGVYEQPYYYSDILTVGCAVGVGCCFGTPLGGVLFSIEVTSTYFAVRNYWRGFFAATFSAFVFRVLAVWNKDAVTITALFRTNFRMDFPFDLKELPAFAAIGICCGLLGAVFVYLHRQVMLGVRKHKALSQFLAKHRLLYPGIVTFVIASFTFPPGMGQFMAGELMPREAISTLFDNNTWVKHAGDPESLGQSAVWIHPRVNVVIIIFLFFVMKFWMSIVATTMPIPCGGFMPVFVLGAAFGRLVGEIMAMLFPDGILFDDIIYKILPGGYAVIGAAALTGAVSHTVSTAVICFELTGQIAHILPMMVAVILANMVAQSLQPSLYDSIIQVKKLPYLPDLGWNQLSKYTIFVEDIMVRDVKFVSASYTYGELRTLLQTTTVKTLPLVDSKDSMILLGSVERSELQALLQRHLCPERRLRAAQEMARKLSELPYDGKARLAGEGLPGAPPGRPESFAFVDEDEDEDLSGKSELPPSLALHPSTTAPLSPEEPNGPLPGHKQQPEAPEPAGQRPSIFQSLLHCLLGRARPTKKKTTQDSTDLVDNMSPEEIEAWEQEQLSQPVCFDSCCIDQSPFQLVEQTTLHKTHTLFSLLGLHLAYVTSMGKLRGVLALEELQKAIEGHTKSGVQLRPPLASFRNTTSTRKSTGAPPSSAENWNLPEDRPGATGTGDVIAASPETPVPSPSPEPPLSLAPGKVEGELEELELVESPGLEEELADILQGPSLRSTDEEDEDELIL

SMILES | Δ1/2 (mV)
C[C@H](Oc1cc(F)c(Br)cc1-c1ccon1)C(=O)O [Compound A-44, (2S)-2-[4-bromo-5-fluoro-2-(1,2-oxazol-3-yl)phenoxy]propanoic acid] | 17.7
C[C@H](Oc1ccc(Br)cc1-c1csnn1)C(=O)O [Compound A-59, (2S)-2-[4-bromo-2-(1,2,3-thiadiazol-4-yl)phenoxy]propanoic acid] | 7.9
O=C(O)COc1ccc(Br)cc1-c1ccon1 [Compound A-64, 2-[4-bromo-2-(1,2-oxazol-3-yl)phenoxy]acetic acid] | 11.3

Continued, values first:

Δ1/2 (mV) | SMILES
21 | C[C@H](Oc1ccc(Cl)cc1-c1ccno1)C(=O)O [Compound A-26, (2S)-2-[4-chloro-2-(1,2-oxazol-5-yl)phenoxy]propanoic acid]
13.8 | O=C(O)[C@H](CF)Oc1ccc(Br)cc1-c1ccon1 [Compound A-31, (2R)-2-[4-bromo-2-(1,2-oxazol-3-yl)phenoxy]-3-fluoropropanoic acid]
